Values quoted from earlier work, collected in paper PMC12141164, “Phase-1 study of vamotinib (PF-114), a 3rd generation BCR::ABL1 tyrosine kinase-inhibitor, in chronic myeloid leukaemia” (Annals of Hematology, 2025).

Assays:
EPHA6 = conditions: kinase inhibition profiles; cited from earlier work
VEGFR2 = conditions: kinase inhibition profiles; cited from earlier work
ZAK = conditions: kinase inhibition profiles; cited from earlier work
rats = test system: rats; design: method as in PMID 25394714; conditions: pre-clinical toxicology; cited from earlier work
dogs = test system: dogs; design: method as in PMID 25394714; conditions: pre-clinical toxicology; cited from earlier work
TAK1 = conditions: kinase inhibition profiles; cited from earlier work

Structure (SMILES): Cc1ccc(C(=O)Nc2ccc(CN3CCN(C)CC3)c(C(F)(F)F)c2)cc1C#Cc1nnc2ccccn12 [vamotinib]
- inhibition of EPHA6 (EPHA6): not
- inhibition of VEGFR2 (VEGFR2): not
- inhibition of ZAK (ZAK): not
- Rash (rats): Rash was seen
- Rash (dogs): Rash was seen
- inhibition of TAK1 (TAK1): not
